Results as given in ChEMBL document CHEMBL4334548, “Discovery of Isoxazole Amides as Potent and Selective SMYD3 Inhibitors” (ACS Med Chem Lett, 2020).
Values after ≈ are worked out from the molar mass of the structure shown.

Experiments:
[1] = Solubility of compound by CLND method; type: physicochemical
[2] = Clearance in Sprague-Dawley rat at 0.5 mg/kg, iv or 2 mg/kg, po; type: ADME, organism-based; settings: in vivo
[3] = Volume of distribution in Sprague-Dawley rat at 0.5 mg/kg, iv or 2 mg/kg, po; type: ADME, organism-based; settings: in vivo
[4] = Half life in Sprague-Dawley rat at 0.5 mg/kg, iv or 2 mg/kg, po; type: ADME, organism-based; settings: in vivo
[5] = Oral bioavailability in Sprague-Dawley rat at 2 mg/kg; type: ADME, organism-based; settings: Sprague-Dawley, in vivo
[6] = AUC in Sprague-Dawley rat at 2 mg/kg, po; type: ADME, organism-based; settings: Sprague-Dawley, in vivo, read-out: AUC
[7] = Permeability of compound; type: ADME; settings: not told; read-out: permeability
[8] = Half life in Sprague-Dawley rat at 1 mg/kg, iv or 2 mg/kg, po; type: ADME, organism-based; settings: in vivo
[9] = Clearance in Sprague-Dawley rat at 1 mg/kg, iv or 2 mg/kg, po; type: ADME, organism-based; settings: in vivo
[10] = Volume of distribution in Sprague-Dawley rat at 1 mg/kg, iv or 2 mg/kg, po; type: ADME, organism-based; settings: in vivo

Row | Structure (SMILES) | solubility kinetic [1] [µM] | Papp [7] [×10⁻⁶ cm/s] | also measured
1 | Cc1ccccc1CN[C@H]1CC[C@H](CS(=O)(=O)N2CCC(NC(=O)c3cc(C4CC4)on3)CC2)CC1 | 15 (≈ 7.72 µg/mL) |  | 
2 | O=C(NC1CCN(S(=O)(=O)C2CCNCC2)CC1)c1cc(C2CC2)on1 | 515 (≈ 197 µg/mL) | 0.69 | clearance [2]: 37 mL/min/kg; Vd [3]: 4.5 L/kg; half-life [4]: 162 min; bioavailability [5]: 27%; AUC [6]: 123 ng·h/mL
3 | O=C(NC1CCN(S(=O)(=O)c2ccc(CN3CCCC3)cc2)CC1)c1cc(C2CC2)on1 | 122 (≈ 55.9 µg/mL) | 13 | clearance [2]: 68 mL/min/kg; Vd [3]: 6.7 L/kg; half-life [4]: 102 min; AUC [6]: 295 ng·h/mL
4 | CCN1CCC(S(=O)(=O)N2CCC(NC(=O)c3cc(C4CC4)on3)CC2)CC1 | 502 (≈ 206 µg/mL) | 5.2 | 
5 | CCN[C@H]1CC[C@H](CS(=O)(=O)N2CCC(NC(=O)c3cc(C4CC4)on3)CC2)CC1 | 295 (≈ 129 µg/mL) | < 0.3 | 
6 | NCCCCS(=O)(=O)N1CCC(NC(=O)c2cc(C3CC3)on2)CC1 | 385 (≈ 143 µg/mL) | < 1 | 
7 | O=C(NC1CCN(S(=O)(=O)C[C@H]2CC[C@H](NCc3ccc(Cl)cn3)CC2)CC1)c1cc(C2CC2)on1 | 14 (≈ 7.51 µg/mL) | 22 | 
8 | O=C(NC1CCN(S(=O)(=O)C[C@H]2CC[C@H](NCc3cncc(F)c3)CC2)CC1)c1cc(C2CC2)on1 | 12 (≈ 6.24 µg/mL) | 11 | 
9 | O=C(NC1CCN(S(=O)(=O)C2CCNC2)CC1)c1cc(C2CC2)on1 (stereo not given) | 406 (≈ 150 µg/mL) | 2.4 | 
10 | CN1CCC(S(=O)(=O)N2CCC(NC(=O)c3cc(C4CC4)on3)CC2)CC1 | 474 (≈ 188 µg/mL) | 5.6 | 
11 | O=C(NC1CCN(S(=O)(=O)C[C@H]2CC[C@H](NCc3ccc(Cl)cc3)CC2)CC1)c1cc(C2CC2)on1 | 6 (≈ 3.21 µg/mL) | 44 | half-life [8]: 438 min; bioavailability [5]: 70%; clearance [9]: 36 mL/min/kg; Vd [10]: 14.7 L/kg; AUC [6]: 365 ng·h/mL
12 | CCN(CCCC(F)(F)F)[C@H]1CC[C@H](CS(=O)(=O)N2CCC(NC(=O)c3cc(C4CC4)on3)CC2)CC1 | 53 (≈ 29.1 µg/mL) | 41 | 
13 | CC(C)CN[C@H]1CC[C@H](CS(=O)(=O)N2CCC(NC(=O)c3cc(C4CC4)on3)CC2)CC1 | 434 (≈ 203 µg/mL) | 6.1 | 
14 | CCCCN[C@H]1CC[C@H](CS(=O)(=O)N2CCC(NC(=O)c3cc(C4CC4)on3)CC2)CC1 | 234 (≈ 109 µg/mL) | 6.8 | 
15 | N[C@H]1CC[C@H](S(=O)(=O)N2CCC(NC(=O)c3cc(C4CC4)on3)CC2)CC1 | 329 (≈ 130 µg/mL) | < 1 | 
16 | O=C(NC1CCN(S(=O)(=O)C[C@H]2CC[C@H](NCc3ccccc3Cl)CC2)CC1)c1cc(C2CC2)on1 | 6 (≈ 3.21 µg/mL) | 20 | 
17 | NCc1ccc(S(=O)(=O)N2CCC(NC(=O)c3cc(C4CC4)on3)CC2)cc1 | 295 (≈ 119 µg/mL) | 5.2 | clearance [2]: 311 mL/min/kg; Vd [3]: 2.3 L/kg; half-life [4]: 12 min
18 | Cc1cccc(CN[C@H]2CC[C@H](CS(=O)(=O)N3CCC(NC(=O)c4cc(C5CC5)on4)CC3)CC2)c1 | 21 (≈ 10.8 µg/mL) | 17 | 
19 | CC(C)(C)CCN[C@H]1CC[C@H](CS(=O)(=O)N2CCC(NC(=O)c3cc(C4CC4)on3)CC2)CC1 | 10 (≈ 4.95 µg/mL) | 18 | 
20 | O=C(NC1CCN(S(=O)(=O)C[C@H]2CC[C@H](NCCC(F)(F)F)CC2)CC1)c1cc(C2CC2)on1 | 48 (≈ 24.3 µg/mL) | 16 | 
21 | NC[C@H]1CC[C@H](S(=O)(=O)N2CCC(NC(=O)c3cc(C4CC4)on3)CC2)CC1 | 479 (≈ 197 µg/mL) | < 1 | 
22 | Cc1ccc(CN[C@H]2CC[C@H](CS(=O)(=O)N3CCC(NC(=O)c4cc(C5CC5)on4)CC3)CC2)nc1 | 61 (≈ 31.5 µg/mL) | 8.9 | 
23 | CN[C@H]1CC[C@H](CS(=O)(=O)N2CCC(NC(=O)c3cc(C4CC4)on3)CC2)CC1 | 297 (≈ 126 µg/mL) | < 1 | 
24 | O=C(NC1CCN(S(=O)(=O)CCCN2CCCC2)CC1)c1cc(C2CC2)on1 | 410 (≈ 168 µg/mL) | 5 | 
25 | O=C(NC1CCN(S(=O)(=O)C[C@H]2CC[C@H](NCc3ccc(F)cc3)CC2)CC1)c1cc(C2CC2)on1 | 3 (≈ 1.56 µg/mL) |  | 
